According to PubChem BioAssay (NCI):
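Interpolation was linear, between the two tested concentrations surrounding the appropriate level; five concentrations were tested over 48 hours in 96-well plates. GI50 is the concentration that inhibits growth by half. Definition used: TGI = concentration required for complete inhibition of growth.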

Key:
Assay in all cases: growth of human tumour cells (NCI), 48 h
COLO 205 colon = tested on: COLO 205 colon
A498 renal = tested on: A498 renal
HCC-2998 colon = tested on: HCC-2998 colon
TK-10 renal = tested on: TK-10 renal
MDA-MB-435 = tested on: MDA-MB-435
HOP-62 NSCLC = tested on: HOP-62 NSCLC
MALME-3M melanoma = tested on: MALME-3M melanoma
SNB-19 CNS = tested on: SNB-19 CNS
786-0 renal = tested on: 786-0 renal
SF-268 CNS = tested on: SF-268 CNS

Compound	GI50 (COLO 205 colon)	TGI (COLO 205 colon)	GI50 (A498 renal)	TGI (A498 renal)	GI50 (HCC-2998 colon)	TGI (HCC-2998 colon)	GI50 (TK-10 renal)	TGI (TK-10 renal)	TGI (MDA-MB-435)	TGI (HOP-62 NSCLC)	TGI (MALME-3M melanoma)	TGI (SNB-19 CNS)	TGI (786-0 renal)	TGI (SF-268 CNS)
CCN1CCN(Cc2ccc(NC(=O)Nc3ccc(-n4ccc5c(NC(=O)c6ccccc6)nccc54)cc3)cc2C(F)(F)F)CC1	0.942 µM	2.51 µM	5.17 µM	19.1 µM	1.23 µM	2.54 µM	1.5 µM	> 100 µM	–	–	–	–	–	–
C=C1CC(COc2ccc3c(C)c(C)c(=O)oc3c2C)(c2ccccc2)OC1=O (stereo unspecified)	–	3.24 µM	–	12.5 µM	–	7.12 µM	–	3.03 µM	7.96 µM	20.8 µM	4.16 µM	27.1 µM	2.78 µM	7.96 µM
N#Cc1nc(C2CCC(=O)O2)oc1N (stereo unspecified)	–	> 100 µM	–	> 100 µM	–	–	–	> 100 µM	> 100 µM	> 100 µM	> 100 µM	> 100 µM	> 100 µM	> 100 µM
O=C(OC12CC3CC(CC(C3)C1)C2)c1ccc(NCc2cc(O)ccc2O)cc1	–	1.12 µM	–	4.98 µM	–	3.75 µM	–	1.96 µM	4.45 µM	14.8 µM	1.67 µM	11.7 µM	2.86 µM	5.69 µM
O=C(O)C1=NN(c2ccc(S(=O)(=O)O)cc2)C2(C1)C(Cl)C(=O)N2c1nc2ccccc2s1 (stereo unspecified)	–	35.1 µM	–	36.7 µM	–	33.4 µM	–	33.2 µM	32.6 µM	30.5 µM	38.7 µM	64.8 µM	32 µM	39.8 µM
Clc1ccc(OCc2nnc(COc3ccc(OCc4nnc(COc5ccc(Cl)cc5Cl)o4)c(Cl)c3)o2)c(Cl)c1	–	74.9 µM	–	> 100 µM	–	97.3 µM	–	> 100 µM	> 100 µM	> 100 µM	> 100 µM	> 100 µM	> 100 µM	64.3 µM
O=C(Sc1c(-c2ccccc2)c(=O)n(-c2ccccc2)c(=S)n1-c1ccccc1)c1ccco1	–	> 100 µM	–	> 100 µM	–	> 100 µM	–	> 100 µM	> 100 µM	> 100 µM	> 100 µM	> 100 µM	> 100 µM	> 100 µM
C[N+]1(CCN=C=NC2CCCCC2)CCOCC1	–	> 100 µM	–	> 100 µM	–	–	–	> 100 µM	> 100 µM	> 100 µM	> 100 µM	> 100 µM	> 100 µM	> 100 µM
CC(=O)N(C)c1ccc(Nc2ccnc3ccc4nn(C)nc4c23)cc1	–	45.2 µM	–	–	–	–	–	70.2 µM	> 100 µM	84.3 µM	39.6 µM	> 100 µM	> 100 µM	> 100 µM
COc1ccc(OC/C(N=Cc2ccncc2)=N/NC(=O)c2ccncc2)cc1	–	> 100 µM	–	> 100 µM	–	> 100 µM	–	> 100 µM	62.4 µM	> 100 µM	> 100 µM	> 100 µM	> 100 µM	> 100 µM
O=P1(C(O)/C=C/c2ccccc2)N(Cc2ccccc2)[C@@H]2CCCC[C@H]2N1Cc1ccccc1 (stereo partly specified)	–	6.26 µM	–	11.2 µM	–	14.4 µM	–	28.5 µM	15.1 µM	34.6 µM	8.45 µM	20.6 µM	18.8 µM	14.2 µM
Cc1ccc2c(c1C)CC1(Cc3c(C)ccc(C)c3C1=O)C2=O (stereo unspecified)	–	> 100 µM	–	> 100 µM	–	> 100 µM	–	> 100 µM	> 100 µM	–	> 100 µM	> 100 µM	> 100 µM	> 100 µM
CCCCN1C(=O)CC2[C@@H]3CCc4cc(OC)ccc4C3CC[C@]2(C)C1=O (stereo partly specified)	–	> 10 µM	–	> 10 µM	–	> 10 µM	–	> 10 µM	> 10 µM	> 10 µM	> 10 µM	> 10 µM	> 10 µM	> 10 µM
Nc1nncc2[nH]cnc12	–	> 60.9 µM	–	> 100 µM	–	> 100 µM	–	> 100 µM	> 100 µM	> 100 µM	–	> 100 µM	> 100 µM	> 100 µM
Cc1cn(CCCCCOC(=O)NC(CCCNC(N)=O)C(=O)O)c(=O)[nH]c1=O (stereo unspecified)	–	> 100 µM	–	> 100 µM	–	> 100 µM	–	> 100 µM	> 100 µM	> 100 µM	–	> 100 µM	> 100 µM	> 100 µM
N#Cc1nc(CCCN2C(=O)c3ccccc3C2=O)oc1N	–	> 100 µM	–	–	–	> 100 µM	–	> 100 µM	> 100 µM	> 100 µM	> 100 µM	> 100 µM	> 100 µM	> 100 µM
Cn1c2c(c3ccccc31)CCN1C(=O)C34CCCC3CC21S4 (stereo unspecified)	–	> 100 µM	–	> 100 µM	–	–	–	> 100 µM	> 100 µM	> 100 µM	> 100 µM	> 100 µM	> 100 µM	> 100 µM
NC(N)=NS(=O)(=O)c1ccc(NC(=O)c2cccc3c(NNc4ccc(S(N)(=O)=O)cc4)c4ccccc4nc23)cc1	–	> 100 µM	–	–	–	> 100 µM	–	> 100 µM	> 100 µM	> 100 µM	88.8 µM	> 100 µM	> 100 µM	> 100 µM
O=P(OCc1ccccc1)(OCc1ccccc1)C(O)/C=C/c1ccccc1 (stereo unspecified)	–	44.9 µM	–	35.2 µM	–	–	–	–	35.1 µM	55.5 µM	38.2 µM	71.3 µM	39.5 µM	42.8 µM
C[n+]1c(-c2ccc(NC(=O)c3ccc(C(=O)Nc4ccc(-c5cn6ccccc6[n+]5C)cc4)cc3)cc2)cn2ccccc21	–	> 100 µM	–	> 94.9 µM	–	> 100 µM	–	> 100 µM	> 100 µM	> 100 µM	> 100 µM	> 100 µM	> 100 µM	> 100 µM
NCCCCNCCCNC(=O)CNC(=O)CC(O)C(N)CCCC(NC(=O)C(CN)NC(=O)C(O)CNC(=O)CC(N)c1ccc(O)cc1)C(=O)O (stereo unspecified)	–	> 10 µM	–	> 10 µM	–	> 10 µM	–	> 10 µM	> 10 µM	> 10 µM	> 10 µM	> 10 µM	> 10 µM	> 10 µM
NC(Cc1[nH]nc2ccccc12)C(=O)O (stereo unspecified)	–	> 100 µM	–	> 100 µM	–	> 100 µM	–	> 100 µM	> 100 µM	> 100 µM	> 100 µM	> 100 µM	> 100 µM	> 100 µM
